The record followed here is ChEMBL document CHEMBL1137630, “Development of resistance in wild-type and hypermutable Pseudomonas aeruginosa strains exposed to clinical pharmacokinetic profiles of meropenem and ceftazidime simulated in vitro” (Antimicrob Agents Chemother, 2007).

SMILES strings stand for the structures. Values after ≈ are worked out from the molar mass of the structure shown. Active and inactive are the calls of the source.

For series [1], the system named is Pseudomonas aeruginosa. Put plainly: Antibacterial activity against Pseudomonas aeruginosa PAO1 by CLSI broth microdilution method. The format is functional.
In series [2] the test system is Pseudomonas aeruginosa. Kind of series: Antibacterial activity against Pseudomonas aeruginosa PAO1 at 30 ug/disk in presence of cephalosporinase inhibitor cloxacillin by disk diffusion test. The format is functional. The note with it: read-out: DIZ.
In series [3] the test system is Pseudomonas aeruginosa. Put plainly: Antibacterial activity against Pseudomonas aeruginosa PAO1 assessed as maximum bactericidal effect in in vitro PK/PD model by measuring change in bacterial count at 2 g infused every 8 hrs interval measured 17.5 hrs after initial dose relative to initial inoculum.
For series [4], the system named is Pseudomonas aeruginosa. Put plainly: Antibacterial activity against Pseudomonas aeruginosa PAO1/CAZ mutant by CLSI broth microdilution method. The format is functional.
Series [5] concerns Pseudomonas aeruginosa. Kind of series: microbe, parasite or virus in culture. The note with it: isolate 12-09-15.
Description: Antibacterial activity against hypermutable Pseudomonas aeruginosa isolate 12-09-15 by CLSI broth microdilution method
Series [6] can be described thus: Half life in in vitro PK/PD model at 2 g infused thrice daily at 8 hrs interval. It is filed as ADME. The note with it: iv.
For series [7], the system named is Pseudomonas aeruginosa. Kind of series: Antibacterial activity against Pseudomonas aeruginosa PAO1 assessed as reduction of bacterial count in in vitro PK/PD model at 2 g infused every 8 hrs interval measured after first dose relative to initial inoculum. It is filed as functional, organism-based.
Series [8] concerns Pseudomonas aeruginosa. Kind of series: Antibacterial activity against Pseudomonas aeruginosa PAO1/CAZ mutant at 30 ug/disk in presence of cephalosporinase inhibitor cloxacillin by disk diffusion test. It is filed as functional. The following applies: read-out: DIZ. (In agar diffusion tests the substance spreads into inoculated agar from a disc or well.)
For series [9], the system named is Pseudomonas aeruginosa. Put plainly: Antibacterial activity against Pseudomonas aeruginosa PAO1 assessed as reduction of bacterial count in in vitro PK/PD model at 2 g infused every 8 hrs interval measured after second dose relative to initial inoculum. It is filed as functional.
Series [10] deals with Pseudomonas aeruginosa. Put plainly: Antibacterial activity against Pseudomonas aeruginosa PAO1 at 30 ug/disk in absence of cephalosporinase inhibitor cloxacillin by disk diffusion test. It is filed as functional. The following applies: read-out: DIZ.
The test system of series [11] is Pseudomonas aeruginosa. Put plainly: Antibacterial activity against Pseudomonas aeruginosa PAO1/CAZ mutant at 30 ug/disk in absence of cephalosporinase inhibitor cloxacillin by disk diffusion test. The note with it: read-out: DIZ. The format is functional.
Series [12] has as its system Pseudomonas aeruginosa. Kind of series: Antibacterial activity against Pseudomonas aeruginosa PAO1 assessed as bacterial count in in vitro PK/PD model at 2 g infused every 8 hrs interval measured 40 hrs after first dose relative to initial inoculum. The format is functional, organism-based.
Series [13] in a line: Cmax in PK/PD in vitro model infused with 2g at 8hr intervals. It is filed as ADME. Set-up: dose 2 g. The note with it: iv.
A short description of series [14]: %T>MIC against Pseudomonas aeruginosa PAO1 in in vitro PK/PD model at 2 g infused thrice daily at 8 hrs interval. The format is functional.
The nature of series [15]: %T>MIC against hypermutable Pseudomonas aeruginosa 12-09-15 isolate in in vitro PK/PD model at 2 g infused thrice daily at 8 hrs interval. The format is functional.
The test system of series [16] is Pseudomonas aeruginosa. Put plainly: Antibacterial activity against Pseudomonas aeruginosa PAO1 in in vitro PK/PD model assessed as AAC (0 to 24 hrs) at 2 g infused thrice daily at 8 hrs interval. The format is functional.
In series [17] the test system is Pseudomonas aeruginosa. Kind of series: Antibacterial activity against Pseudomonas aeruginosa PAO1 in in vitro PK/PD model assessed as AAC (0 to 8 hrs) at 2 g infused thrice daily at 8 hrs interval measured after first dose. The format is functional.
The test system of series [18] is Pseudomonas aeruginosa. Put plainly: Antibacterial activity against Pseudomonas aeruginosa PAO1/MEM mutant by CLSI broth microdilution method. It is filed as functional. On the technique in general: Broth dilution looks for growth in wells or tubes with falling amounts of substance.
The test system of series [19] is Pseudomonas aeruginosa. Kind of series: Antibacterial activity against hypermutable Pseudomonas aeruginosa 12-09-15/MEM mutant by broth microdilution method.
Series [20] in a line: %T>MIC against hypermutable Pseudomonas aeruginosa isolate 12-09-15 in in vitro PK/PD model at 1 g infused thrice daily at 8 hrs interval. It is filed as functional.
In series [21] the test system is Pseudomonas aeruginosa. Kind of series: Antibacterial activity against Pseudomonas aeruginosa PAO1 assessed as change in bacterial count in in vitro PK/PD model at 1 g infused every 8 hrs interval measured after 8 hrs relative to initial inoculum. It is filed as functional, organism-based.
Series [22] can be described thus: Cmax in PK/PD in vitro model infused with 1g at 8hr intervals. Set-up: dose 1 g. The format is ADME. The note with it: iv.
Series [23] concerns Pseudomonas aeruginosa. Kind of series: Antibacterial activity against Pseudomonas aeruginosa PAO1 in in vitro PK/PD model assessed as AAC (0 to 24 hrs) at 1 g infused thrice daily at 8 hrs interval. It is filed as functional.
The test system of series [24] is Pseudomonas aeruginosa. Put plainly: Antibacterial activity against Pseudomonas aeruginosa PAO1 assessed as bacterial count in in vitro PK/PD model at 1 g infused every 8 hrs interval measured 40 hrs after first dose relative to initial inoculum. The format is functional, organism-based.
A short description of series [25]: %T>MIC against Pseudomonas aeruginosa PAO1 in in vitro PK/PD model at 1 g infused thrice daily at 8 hrs interval. It is filed as functional.
For series [26], the system named is Pseudomonas aeruginosa. Kind of series: Antibacterial activity against hypermutable Pseudomonas aeruginosa isolate 12-09-15 in in vitro PK/PD model assessed as AAC (0 to 24 hrs) at 1 g infused thrice daily at 8 hrs interval. The format is functional.
The test system of series [27] is Pseudomonas aeruginosa. Put plainly: Antibacterial activity against Pseudomonas aeruginosa PAO1 assessed as maximum bactericidal effect in in vitro PK/PD model by measuring change in bacterial count at 1 g infused every 8 hrs interval measured 1 hr after first dose relative to initial inoculum. It is filed as functional.
Series [28] relates to Pseudomonas aeruginosa. Kind of series: Antibacterial activity against hypermutable Pseudomonas aeruginosa isolate 12-09-15 assessed as change in bacterial count in in vitro PK/PD model at 1 g infused every 8 hrs interval measured after 8 hrs relative to initial inoculum. The format is functional, organism-based.
Series [29] relates to Pseudomonas aeruginosa. Put plainly: Antibacterial activity against hypermutable Pseudomonas aeruginosa isolate 12-09-15 assessed as bacterial count in in vitro PK/PD model at 1 g infused every 8 hrs interval measured 40 hrs after first dose relative to initial inoculum. It is filed as functional, organism-based.
Series [30] is described as follows: Half life in in vitro PK/PD model at 1 g infused thrice daily at 8 hrs interval. It is filed as ADME. The note with it: iv.
Series [31] concerns Pseudomonas aeruginosa. Kind of series: Antibacterial activity against Pseudomonas aeruginosa PAO1 in in vitro PK/PD model assessed as AAC (0 to 8 hrs) at 1 g infused thrice daily at 8 hrs interval measured after first dose. It is filed as functional.
Series [32] has as its system Pseudomonas aeruginosa. Kind of series: Antibacterial activity against hypermutable Pseudomonas aeruginosa isolate 12-09-15 assessed as maximum bactericidal effect in in vitro PK/PD model by measuring change in bacterial count at 1 g infused every 8 hrs interval measured 3 hrs after first dose relative to initial inoculum. It is filed as functional.
Series [33] can be described thus: Ratio of Cmax in in vitro PK/PD model at 1 g infused at every 8 hrs intervals to MIC for Pseudomonas aeruginosa PAO1. The format is functional.
The test system of series [34] is Pseudomonas aeruginosa. Put plainly: Antibacterial activity against Pseudomonas aeruginosa PAO1 assessed as reduction of bacterial count in in vitro PK/PD model at 1 g infused every 8 hrs interval measured after second dose relative to initial inoculum. The format is functional.
A short description of series [35]: Ratio of Cmax in in vitro PK/PD model at 1 g infused at every 8 hrs intervals to MIC for hypermutable Pseudomonas aeruginosa isolate 12-09-15. It is filed as functional.

The term half-life denotes the time needed for the level to fall by half in the phase considered. Low readings indicate rapid decline, high ones slow decline. A word on the Cmax: it is the maximum level reached in the sampled fluid or tissue. Regarding `CC(C)(O/N=C(\C(=O)N[C@@H]1C(=O)N2C(C(=O)[O-])=C(C[n+]3ccccc3)CS[C@H]12)c1csc(N)n1)C(=O)O` [CEFTAZIDIME], the MIC in the series on Pseudomonas aeruginosa [1] worked out at 2 mg/L (≈ 3.66 µM); with Pseudomonas aeruginosa [4], 32 mg/L (≈ 58.5 µM); in the series with Pseudomonas aeruginosa [5], 16 mg/L (≈ 29.3 µM). The zone of inhibition at 30 µg/disc in the series on Pseudomonas aeruginosa [2] is 27 mm; in the series on Pseudomonas aeruginosa [8], 27 mm; in the series with Pseudomonas aeruginosa [10] it was 27 mm; in the series on Pseudomonas aeruginosa [11], 17 mm. Moreover, the deltalog10CFU with Pseudomonas aeruginosa [3] is listed as -1.28 /ml. The half-life in series [6] is 1.96 h. In addition, the outcome in the series with Pseudomonas aeruginosa [7] and in the series on Pseudomonas aeruginosa [12] was inactive. For the same compound, the “fold change (FC)” value in the series on Pseudomonas aeruginosa [9] is 1. For the same compound, in series [13], the Cmax stood at 174 µg/mL. For the same compound, the results for the T>MIC in series [14] and in [15] were 100% and 45.8%, respectively. Besides, the AAC with Pseudomonas aeruginosa [16] is 9.29 deltalog10CFU/ml.hr; in the series on Pseudomonas aeruginosa [17], -0.19 deltalog10CFU/ml.hr.

As for `C[C@@H](O)[C@H]1C(=O)N2C(C(=O)O)=C(SCCNC=N)C[C@H]12` [IMIPENEM ANHYDROUS], the MIC with Pseudomonas aeruginosa [1] was determined as 2 mg/L (≈ 6.68 µM); in the series with Pseudomonas aeruginosa [18] it was 16 mg/L (≈ 53.4 µM); with Pseudomonas aeruginosa [5] it was 4 mg/L (≈ 13.4 µM); in the series on Pseudomonas aeruginosa [19], 16 mg/L (≈ 53.4 µM).

Take `C[C@H]1COc2c(N3CCN(C)CC3)c(F)cc3c(=O)c(C(=O)O)cn1c23.C[C@H]1COc2c(N3CCN(C)CC3)c(F)cc3c(=O)c(C(=O)O)cn1c23.O` [LEVOFLOXACIN]: the MIC against Pseudomonas aeruginosa [1], against Pseudomonas aeruginosa [4] and against Pseudomonas aeruginosa [18] was 0.5 mg/L throughout.

Consider `C[C@@H](O)[C@H]1C(=O)N2C(C(=O)O)=C(S[C@@H]3CN[C@H](C(=O)N(C)C)C3)[C@H](C)[C@H]12` [MEROPENEM], for which the MIC against Pseudomonas aeruginosa [1] came to 0.5 mg/L (≈ 1.3 µM); in the series on Pseudomonas aeruginosa [18] it was 4 mg/L (≈ 10.4 µM); in the series with Pseudomonas aeruginosa [5], 2 mg/L (≈ 5.22 µM); in the series with Pseudomonas aeruginosa [19], 16 mg/L (≈ 41.7 µM). Besides, the results for the T>MIC in series [20] and in series [25] were 41.7% and 66.7%, respectively. For the same compound, the outcome in the series with Pseudomonas aeruginosa [21], in the series with Pseudomonas aeruginosa [24], in the series on Pseudomonas aeruginosa [28] and in the series on Pseudomonas aeruginosa [29] was inactive. The compound further displayed a Cmax in series [22] of 56.1 µg/mL. Besides, the AAC with Pseudomonas aeruginosa [23] is reported as -22.46 deltalog10CFU/ml.hr; in the series with Pseudomonas aeruginosa [26], -19.58 deltalog10CFU/ml.hr; with Pseudomonas aeruginosa [31], 5.3 deltalog10CFU/ml.hr. The deltalog10CFU with Pseudomonas aeruginosa [27] is given as -1.09 /ml; in the series with Pseudomonas aeruginosa [32] it was -1.23 /ml; in the series with Pseudomonas aeruginosa [34], -0.83 /ml. Also, the half-life in [30] is 0.45 h. Besides, the Ratio in series [33] was determined as 112; in [35] it was 28.1.

In the case of `CCN1CCN(C(=O)N[C@@H](C(=O)N[C@@H]2C(=O)N3[C@@H]2SC(C)(C)[C@@H]3C(=O)O)c2ccccc2)C(=O)C1=O` [PIPERACILLIN], the MIC is 4 mg/L (≈ 7.73 µM) with Pseudomonas aeruginosa [1] and 64 mg/L (≈ 124 µM) in the series on Pseudomonas aeruginosa [4].
